In PubChem BioAssay (NCI):
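Results reflect a 48-hour exposure of cells in 96-well plates to compound at five concentrations. TGI: total growth inhibition.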

Key:
Assay in all cases: NCI tumour cell line growth inhibition, 48 h
MCF7 breast = tested on: MCF7 breast
U251 CNS = tested on: U251 CNS
SK-MEL-2 melanoma = tested on: SK-MEL-2 melanoma
SK-MEL-5 melanoma = tested on: SK-MEL-5 melanoma
PC-3 prostate = tested on: PC-3 prostate
SK-MEL-28 melanoma = tested on: SK-MEL-28 melanoma
IGROV1 ovarian = tested on: IGROV1 ovarian
DU-145 prostate = tested on: DU-145 prostate
RXF 393 renal = tested on: RXF 393 renal
T-47D breast = tested on: T-47D breast
SNB-75 CNS = tested on: SNB-75 CNS
HCT-116 colon = tested on: HCT-116 colon
TK-10 renal = tested on: TK-10 renal
NCI-H460 lung = tested on: NCI-H460 lung
NCI/ADR-RES ovarian = tested on: NCI/ADR-RES ovarian
NCI-H226 lung = tested on: NCI-H226 lung
HS 578T breast = tested on: HS 578T breast
BT-549 breast = tested on: BT-549 breast
SF-268 CNS = tested on: SF-268 CNS
COLO 205 colon = tested on: COLO 205 colon
KM12 colon = tested on: KM12 colon
UO-31 renal = tested on: UO-31 renal
NCI-H23 lung = tested on: NCI-H23 lung
OVCAR-3 ovarian = tested on: OVCAR-3 ovarian
EKVX NSCLC = tested on: EKVX NSCLC
MDA-N = tested on: MDA-N
K-562 leukemia = tested on: K-562 leukemia
SF-539 CNS = tested on: SF-539 CNS
CAKI-1 renal = tested on: CAKI-1 renal
SK-OV-3 ovarian = tested on: SK-OV-3 ovarian
SW-620 colon = tested on: SW-620 colon
OVCAR-5 ovarian = tested on: OVCAR-5 ovarian
HT29 colon = tested on: HT29 colon
SN12C renal = tested on: SN12C renal
OVCAR-4 ovarian = tested on: OVCAR-4 ovarian
SNB-19 CNS = tested on: SNB-19 CNS
LOX IMVI melanoma = tested on: LOX IMVI melanoma
CCRF-CEM leukemia = tested on: CCRF-CEM leukemia
MOLT-4 leukemia = tested on: MOLT-4 leukemia
ACHN renal = tested on: ACHN renal
SF-295 CNS = tested on: SF-295 CNS
UACC-62 melanoma = tested on: UACC-62 melanoma
UACC-257 melanoma = tested on: UACC-257 melanoma
HOP-62 NSCLC = tested on: HOP-62 NSCLC
RPMI-8226 leukemia = tested on: RPMI-8226 leukemia
MDA-MB-435 = tested on: MDA-MB-435
HCC-2998 colon = tested on: HCC-2998 colon
HOP-92 NSCLC = tested on: HOP-92 NSCLC
OVCAR-8 ovarian = tested on: OVCAR-8 ovarian
M14 melanoma = tested on: M14 melanoma
A549 NSCLC = tested on: A549 NSCLC

Measured: TGI

C/C(=C\c1ccccc1)n1c(=O)cc(C)n1C
> 100 µM: all assays above
